Measurements taken from PubChem BioAssay AID2060888 (Molecular Pharmacology Branch, DTP, NCI, 2025).

System: 695427-040-R-J1-PDC complex spheroid viability
Experiment: Anticancer human tumor 695427-040-R-J1-PDC patient-derived colon adenocarcinoma cell line growth inhibition [RAS]
Conditions: for viability, T/C: stronger effect = lower value
In short: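 Multi-cell-type spheroids: tumor cells plus HUVEC endothelial cells and mesenchymal stem cells. RAS-pathway inhibitors were combined with targeted agents, each dosed in half-log steps down from clinical Cmax, or from 10 microM when Cmax was unknown.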

[1] = curve of first compound, second compound 0.00316 µM
[2] = curve of first compound, second compound 0.01 µM
[3] = curve of first compound, second compound 0.0316 µM
[4] = curve of first compound, second compound 0.1 µM
[5] = curve of first compound, second compound 0.316 µM
[6] = curve of first compound, second compound 1 µM
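Note: viability read after seven days of drug exposure.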
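Throughout, for viability, T/C: 100% = DMSO vehicle control viability.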

C[C@@H](NC(=O)c1ncnc(N)c1Cl)c1ncc(C(=O)Nc2cc(C(F)(F)F)c(Cl)cn2)s1 + C=CC(=O)N1CCN(c2nc(OCC3CCCN3C)nc3c(F)c(-c4nc(N)cc(C)c4C(F)(F)F)c(Cl)cc23)C(C)C1
IC50 [1]: > 10 µM | IC50 [2]: > 10 µM | IC50 [3]: > 10 µM | IC50 [4]: > 10 µM | IC50 [5]: > 10 µM | IC50 [6]: > 10 µM | viability, T/C (second compound 0.00316 µM, first compound 0.0316 µM): 108% | viability, T/C (second compound 0.00316 µM, first compound 0.1 µM): 109% | viability, T/C (second compound 0.00316 µM, first compound 0.316 µM): 111% | viability, T/C (second compound 0.00316 µM, first compound 1 µM): 105% | viability, T/C (second compound 0.00316 µM, first compound 3.16 µM): 99.7% | viability, T/C (second compound 0.00316 µM, first compound 10 µM): 75.2% | viability, T/C (second compound 0.01 µM, first compound 0.0316 µM): 121% | viability, T/C (second compound 0.01 µM, first compound 0.1 µM): 109% | viability, T/C (second compound 0.01 µM, first compound 0.316 µM): 114% | viability, T/C (second compound 0.01 µM, first compound 1 µM): 103% | viability, T/C (second compound 0.01 µM, first compound 3.16 µM): 96.2% | viability, T/C (second compound 0.01 µM, first compound 10 µM): 75.9% | viability, T/C (second compound 0.0316 µM, first compound 0.0316 µM): 107% | viability, T/C (second compound 0.0316 µM, first compound 0.1 µM): 99.8% | viability, T/C (second compound 0.0316 µM, first compound 0.316 µM): 104% | viability, T/C (second compound 0.0316 µM, first compound 1 µM): 101% | viability, T/C (second compound 0.0316 µM, first compound 3.16 µM): 94.4% | viability, T/C (second compound 0.0316 µM, first compound 10 µM): 75.9% | viability, T/C (second compound 0.1 µM, first compound 0.0316 µM): 113% | viability, T/C (second compound 0.1 µM, first compound 0.1 µM): 105% | viability, T/C (second compound 0.1 µM, first compound 0.316 µM): 99.8% | viability, T/C (second compound 0.1 µM, first compound 1 µM): 101% | viability, T/C (second compound 0.1 µM, first compound 3.16 µM): 98.4% | viability, T/C (second compound 0.1 µM, first compound 10 µM): 73.1% | viability, T/C (second compound 0.316 µM, first compound 0.0316 µM): 110% | viability, T/C (second compound 0.316 µM, first compound 0.1 µM): 105% | viability, T/C (second compound 0.316 µM, first compound 0.316 µM): 108% | viability, T/C (second compound 0.316 µM, first compound 1 µM): 105% | viability, T/C (second compound 0.316 µM, first compound 3.16 µM): 103% | viability, T/C (second compound 0.316 µM, first compound 10 µM): 76.6% | viability, T/C (second compound 1 µM, first compound 0.0316 µM): 108% | viability, T/C (second compound 1 µM, first compound 0.1 µM): 94.4% | viability, T/C (second compound 1 µM, first compound 0.316 µM): 103% | viability, T/C (second compound 1 µM, first compound 1 µM): 95.5% | viability, T/C (second compound 1 µM, first compound 3.16 µM): 92.6% | viability, T/C (second compound 1 µM, first compound 10 µM): 72.9%

CCc1c2c(nc3ccc(O)cc13)-c1cc3c(c(=O)n1C2)COC(=O)[C@]3(O)CC
viability, T/C (compound 0.000949 µM): 91.9% [middle of 4 runs] | viability, T/C (compound 0.003 µM): 96.8% [middle of 4 runs] | viability, T/C (compound 0.00949 µM): 86.8% [middle of 4 runs] | viability, T/C (compound 0.03 µM): 73.4% [middle of 4 runs] | viability, T/C (compound 0.0949 µM): 52.8% [middle of 4 runs] | viability, T/C (compound 0.3 µM): 34.5% [middle of 4 runs] | IC50 (curve of compound): 114 nM [middle of 4 runs]

CC1(C)CCC(Nc2ncc(C(F)(F)F)c(-c3c[nH]c4c(P(C)(C)=O)c(C#N)ccc34)n2)CN1 (stereo unspecified) + C=CC(=O)N1CCN(c2nc(OCC3CCCN3C)nc3c(F)c(-c4nc(N)cc(C)c4C(F)(F)F)c(Cl)cc23)C(C)C1
IC50 [1]: > 0.3 µM | IC50 [2]: > 0.3 µM | IC50 [3]: > 0.3 µM | IC50 [4]: > 0.3 µM | IC50 [5]: > 0.3 µM | IC50 [6]: > 0.3 µM | viability, T/C (second compound 0.00316 µM, first compound 0.000949 µM): 116% | viability, T/C (second compound 0.00316 µM, first compound 0.003 µM): 107% | viability, T/C (second compound 0.00316 µM, first compound 0.00949 µM): 90.6% | viability, T/C (second compound 0.00316 µM, first compound 0.03 µM): 86.5% | viability, T/C (second compound 0.00316 µM, first compound 0.0949 µM): 84.6% | viability, T/C (second compound 0.00316 µM, first compound 0.3 µM): 79.2% | viability, T/C (second compound 0.01 µM, first compound 0.000949 µM): 95.8% | viability, T/C (second compound 0.01 µM, first compound 0.003 µM): 93.3% | viability, T/C (second compound 0.01 µM, first compound 0.00949 µM): 88.4% | viability, T/C (second compound 0.01 µM, first compound 0.03 µM): 78.8% | viability, T/C (second compound 0.01 µM, first compound 0.0949 µM): 82.9% | viability, T/C (second compound 0.01 µM, first compound 0.3 µM): 84.9% | viability, T/C (second compound 0.0316 µM, first compound 0.000949 µM): 108% | viability, T/C (second compound 0.0316 µM, first compound 0.003 µM): 89.9% | viability, T/C (second compound 0.0316 µM, first compound 0.00949 µM): 96.2% | viability, T/C (second compound 0.0316 µM, first compound 0.03 µM): 75.7% | viability, T/C (second compound 0.0316 µM, first compound 0.0949 µM): 86.9% | viability, T/C (second compound 0.0316 µM, first compound 0.3 µM): 77.4% | viability, T/C (second compound 0.1 µM, first compound 0.000949 µM): 89.5% | viability, T/C (second compound 0.1 µM, first compound 0.003 µM): 95.4% | viability, T/C (second compound 0.1 µM, first compound 0.00949 µM): 101% | viability, T/C (second compound 0.1 µM, first compound 0.03 µM): 84.7% | viability, T/C (second compound 0.1 µM, first compound 0.0949 µM): 88% | viability, T/C (second compound 0.1 µM, first compound 0.3 µM): 78.4% | viability, T/C (second compound 0.316 µM, first compound 0.000949 µM): 99% | viability, T/C (second compound 0.316 µM, first compound 0.003 µM): 94% | viability, T/C (second compound 0.316 µM, first compound 0.00949 µM): 96.3% | viability, T/C (second compound 0.316 µM, first compound 0.03 µM): 83.8% | viability, T/C (second compound 0.316 µM, first compound 0.0949 µM): 83.9% | viability, T/C (second compound 0.316 µM, first compound 0.3 µM): 81.1% | viability, T/C (second compound 1 µM, first compound 0.000949 µM): 90.2% | viability, T/C (second compound 1 µM, first compound 0.003 µM): 87.3% | viability, T/C (second compound 1 µM, first compound 0.00949 µM): 96.3% | viability, T/C (second compound 1 µM, first compound 0.03 µM): 78.6% | viability, T/C (second compound 1 µM, first compound 0.0949 µM): 88.9% | viability, T/C (second compound 1 µM, first compound 0.3 µM): 79.2%
